≈ marks a conversion by molar mass, not a printed value. Calls of active or inactive are those of the source. The rule behind the calls is not given here.
How the values were obtained:
MRC5 = test: Cytotoxicity against human MRC5 cells assessed as reduction in cell viability at >=12.5 uM measured after 48 hrs by resazurin dye based fluorescence assay; conditions: mrc5, 48 h
Acinetobacter baumannii [1] = test: Synergistic antibacterial activity against Acinetobacter baumannii ATCC BAA-1605 assessed as FIC after 24 hrs in presence of colistin by checkerboard assay relative to test compound MIC; type: functional
[2] = Selectivity index, ratio of IC50 for cytotoxicity against human THP-1 cells to MIC90 for antibacterial activity against […] Staphylococcus aureus ATCC 700699; type: toxicity, cell-based; conditions: read-out: Selectivity Index
Erythrocyte = test: Hemolytic activity against sheep erythrocytes up to 100 uM measured after 1 hr; type: ADME, cell-based, Ovis aries
Pseudomonas aeruginosa [3] = test: Synergistic antibacterial activity against Pseudomonas aeruginosa ATCC 27853 assessed as FIC after 24 hrs in presence of colistin by checkerboard assay relative to colistin; type: functional
Klebsiella pneumoniae = test: Synergistic antibacterial activity against Klebsiella pneumoniae ATCC 700603 assessed as FIC after 24 hrs in presence of colistin by checkerboard assay relative to test compound MIC; type: functional
Pseudomonas aeruginosa [4] = test: Antibacterial activity against Pseudomonas aeruginosa ATCC 27853 measured after 24 hrs by broth microdilution method; type: functional
[5] = tested on: Mycobacterium tuberculosis; test: Antibacterial activity against Mycobacterium tuberculosis H37Rv at 0.78 to 100 uM after 5 days by resazurin dye based fluorescence assay; type: functional, organism-based; conditions: dose microM 0.78-100, time 5.0 day
Acinetobacter baumannii [6] = test: Antibacterial activity against Acinetobacter baumannii ATCC BAA-1605 at 0.78 to 100 uM after 24 hrs by broth microdilution method; type: functional, organism-based; conditions: dose microM 0.78-100, time 24.0 hrs
Acinetobacter baumannii [7] = test: Synergistic antibacterial activity against Acinetobacter baumannii ATCC BAA-1605 assessed as FIC after 24 hrs in presence of colistin by checkerboard assay relative to colistin; type: functional
Staphylococcus aureus = test: Antibacterial activity against […] Staphylococcus aureus ATCC 700699 after 24 hrs by broth microdilution method; type: functional

Clc1ccc2[nH]cc(-c3cccc(-c4c[nH]c5ccc(Cl)cc45)n3)c2c1
Activity (MRC5): Toxic | FIC (Acinetobacter baumannii [1]): <=0.0625 | selectivity ratio [2]: 32 | Activity (Erythrocyte): Non-Toxic | FIC (Pseudomonas aeruginosa [3]): 0.5 | FIC (Klebsiella pneumoniae): <=0.125 | MIC (Pseudomonas aeruginosa [4]): > 100 µM | Activity [5]: Active | Activity (Acinetobacter baumannii [6]): Active | FIC (Acinetobacter baumannii [7]): 0.25 | MIC90 (Staphylococcus aureus): 0.2 µM (≈ 0.0757 µg/mL)
